Patent publication US5622962A, “5α-reductase inhibitors” (priority 1995, dated 1997)

Molecular target: T1, Type II 5α-Reductase from Human Prostate (Homo sapiens, UniProt P31213)
T1 construct: The same procedure as above was used for preparations using tissue from prostate surgery; from tissue; host or cells: human prostate tissue from surgery, homogenate, 100,000×g pellet
T1 sequence (P31213 1-254): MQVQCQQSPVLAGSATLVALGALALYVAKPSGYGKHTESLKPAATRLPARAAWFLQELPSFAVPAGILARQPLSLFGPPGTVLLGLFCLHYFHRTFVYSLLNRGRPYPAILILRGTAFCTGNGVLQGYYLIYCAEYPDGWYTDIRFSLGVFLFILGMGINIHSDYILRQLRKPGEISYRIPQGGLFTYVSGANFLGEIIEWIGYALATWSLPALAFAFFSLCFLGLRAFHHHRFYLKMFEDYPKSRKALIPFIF
Test: Human Type II 5α-reductase assay (conversion of [3H]-testosterone to 5α-reduced metabolites)
Assay type: biochemical
Conditions: pH 5.5, 0.3 μM; sodium acetate pH 5.5, 25°, 30 min; compared to control reaction mixtures; read-out: percent inhibition of Type II AR

CN1C(=O)CC[C@]2(C)c3ccc(-c4ccc5c(c4)CCC5O)cc3CC[C@@H]12 (single isomer, unassigned; (+)) [Example 245]
inhibition at 0.3 µM: 44%

C[C@]12CCC(=O)N[C@@H]1CCc1cc(Sc3ccccc3)ccc12 [Example 22, (4aR)-(10bR)-8-phenylthio-10b-methyl-1,2,3,4,4a,5,6,10b-octahydrobenzo[f]quinolin-3-one]
inhibition at 0.3 µM: 19%

COc1ccc(-c2ccc3c(c2)CC[C@H]2N(C)C(=O)CC[C@]32C)cc1OC [Example 42, (+)-(4 aR)-(10bR)-4-methyl-8-(3,4-dimethoxyphenyl)-10b-methyl-1,2,3,4,4a,5,6,10b-octahydrobenzo[f]quinolin-3-one]
inhibition at 0.3 µM: 32%

CN1C(=O)CC[C@]2(C)c3ccc(-c4cccc(F)c4)cc3CC[C@@H]12 [Example 44, (+)-(4aR)-(10bR)-4-methyl-8-(3-fluorophenyl)-10b-methyl-1,2,3,4,4a,5,6,10b-octahydrobenzo[f]quinolin-3-one]
inhibition at 0.3 µM: 27%

C[C@]12CCC(=O)N[C@@H]1CCc1cc(-c3cnc4ccccc4c3)ccc12 [Example 45, (+)-(4aR)-(10bR)-8-(3-quinolinyl)-10b-methyl-1,2,3,4,4a,-5,6,10b-octahydrobenzo[f]quinolin-3-one]
inhibition at 0.3 µM: 45%

COc1ccc(-c2ccc3c(c2)CC[C@H]2N(C)C(=O)CC[C@]32C)cc1 [Example 47, (+)-(4aR)-(10bR)-4-methyl-8-(4-methoxyphenyl)-10b-methyl-1,2,3,4,4a,5,6,10b-octahydrobenzo[f]quinolin-3-one]
inhibition at 0.3 µM: 16%

COc1cccc(-c2ccc3c(c2)CC[C@H]2N(C)C(=O)CC[C@]32C)c1 [Example 48, (+)-(4aR)-(10bR)-4-methyl-8-(3-methoxyphenyl)-10b-methyl-1,2,3,4,4a,5,6,10b-octahydrobenzo[f]quinolin-3-one]
inhibition at 0.3 µM: 12%

CN1C(=O)CC[C@]2(C)c3ccc(-c4cccnc4)cc3CC[C@@H]12 [Example 54, (+)-(4aR)-(10bR)-4-methyl-8-(3-pyridyl)-10b-methyl-1,2,3,4,4a,5,6,10b-octahydrobenzo[f]quinolin-3-one]
inhibition at 0.3 µM: 22%

CN1C(=O)CC[C@]2(C)c3ccc(-c4cccc(C=O)c4)cc3CC[C@@H]12 [Example 57, (+)-(4aR)-(10bR)-4-methyl-8-(3-formylphenyl)-10b-methyl-1,2,3,4,4a,5,6,10b-octahydrobenzo[f]quinolin-3-one]
inhibition at 0.3 µM: 20%

CN(C)c1ccc(-c2ccc3c(c2)CC[C@H]2N(C)C(=O)CC[C@]32C)cc1 [Example 59, (+)-(4aR)-(10bR)-4-methyl-8-(4-dimethylaminophenyl)-10b-methyl-1,2,3,4,4a,5,6,10b-octahydrobenzo[f]quinolin-3-one]
inhibition at 0.3 µM: 31%

CN1C(=O)CC[C@]2(C)c3ccc(-c4ccc5cc(O)ccc5c4)cc3CC[C@@H]12 [Example 60, (+)-(4aR)-(10bR)-4-methyl-8-(2-[6-hydroxy]naphthyl)-10b-methyl-1,2,3,4,4a,5,6,10b-octahydrobenzo[f]quinolin-3-one]
inhibition at 0.3 µM: 42%

CN1C(=O)CC[C@]2(C)c3ccc(-c4cccc(Cl)c4)cc3CC[C@@H]12 [Example 63, (+)-(4aR)-(10bR)-4-methyl-8-(3-chlorophenyl)-10b-methyl-1,2,3,4,4a,5,6,10b-octahydrobenzo[f]quinolin-3-one]
inhibition at 0.3 µM: 19%

CN1C(=O)CC[C@]2(C)c3ccc(-c4ccc5c(c4)OCO5)cc3CC[C@@H]12 [Example 70, (+)-(4aR)-(10bR)-4-methyl-8-(3,4-methylenedioxyphenyl)-10b-methyl-1,2,3,4,4a,5,6,10b-octahydrobenzo[f]quinolin-3-one]
inhibition at 0.3 µM: 36%

CN1C(=O)CC[C@]2(C)c3ccc(-c4ccc(OC(F)(F)F)cc4)cc3CC[C@@H]12 [Example 78, (+)-(4aR)-(10bR)-4-methyl-8-(4-trifluoromethoxyphenyl)-10b-methyl-1,2,3,4,4a,5,6,10b-octahydrobenzo[f]quinolin-3-one]
inhibition at 0.3 µM: 3%

CN1C(=O)CC[C@]2(C)c3ccc(-c4ccc(C(F)(F)F)cc4)cc3CC[C@@H]12 [Example 79, (+)-(4aR)-(10bR)-4-methyl-8-(4-trifluoromethylphenyl)-10b-methyl-1,2,3,4,4a,5,6,10b-octahydrobenzo[f]quinolin-3-one]
inhibition at 0.3 µM: 34%

Cc1cc(C)cc(-c2ccc3c(c2)CC[C@H]2N(C)C(=O)CC[C@]32C)c1 [Example 83, (+)-(4aR)-(10bR)-4-methyl-8-(3,5-dimethylphenyl)-10b-methyl-1,2,3,4,4a,5,6,10b-octahydrobenzo[f]quinolin-3-one]
inhibition at 0.3 µM: 12%

CN1C(=O)CC[C@]2(C)c3ccc(-c4ccc(F)cc4)cc3CC[C@@H]12 [Example 85, (+)-(4aR)-(10bR)-4-methyl-8-(4-fluorophenyl)-10b-methyl-1,2,3,4,4a,5,6,10b-octahydrobenzo[f]quinolin-3-one]
inhibition at 0.3 µM: 12%

CCOc1ccc(-c2ccc(-c3ccc4c(c3)CC[C@H]3N(C)C(=O)CC[C@]43C)cc2)cc1 [Example 89, (+)-(4aR)-(10bR)-4-methyl-8-(4-[4-ethoxy]biphenyl)-10b-methyl-1,2,3,4,4a,5,6,10b-octahydrobenzo[f]quinolin-3-one]
inhibition at 0.3 µM: 15%

CN1C(=O)CC[C@]2(C)c3ccc(-c4cccc(N)c4)cc3CC[C@@H]12 [Example 90, (+)-(4aR)-(10bR)-4-methyl-8-(3-aminophenyl)-10b-methyl-1,2,3,4,4a,5,6,10b-octahydrobenzo[f]quinolin-3-one]
inhibition at 0.3 µM: 22%

C[C@]12CCC(=O)N[C@@H]1CCc1cc(-c3cccc4ccccc34)ccc12 [Example 92, (+)-(4aR)-(10bR)-8-(1-naphthyl)-10b-methyl-1,2,3,4,4a,5,6,10b-octahydrobenzo[f]quinolin-3-one]
inhibition at 0.3 µM: 10%

C[C@]12CCC(=O)N[C@@H]1CCc1cc(-c3cccc([N+](=O)[O-])c3)ccc12 [Example 93, (+)-(4aR)-(10bR)-8-(3-nitrophenyl)-10b-methyl-1,2,3,4,4a,5,6,10b-octahydrobenzo[f]quinolin-3-one]
inhibition at 0.3 µM: 9%

CN1C(=O)CC[C@]2(C)c3ccc(-c4ccc(Cl)cc4Cl)cc3CC[C@@H]12 [Example 94, (+)-(4aR)-(10bR)-4-methyl-8-(2,4-dichlorophenyl)-10b-methyl-1,2,3,4,4a,5,6,10b-octahydrobenzo[f]quinolin-3-one]
inhibition at 0.3 µM: 1%

CN1C(=O)CC[C@]2(C)c3ccc(Sc4ccccc4)cc3CC[C@@H]12 [Example 116, (4aR)-(10bR)-4,10b-dimethyl-8-phenylthio-1,2,3,4, -4a,5,6,10b-octahydrobenzo[f]quinolin-3-one]
inhibition at 0.3 µM: 24%

CN1C(=O)CC[C@]2(C)c3ccc(-c4ccc(C#N)cc4)cc3CC[C@@H]12 [Example 121, (+)-(4aR)-(10bR)-4-methyl-8-(4-cyanophenyl)-10b-methyl-1,2,3,4,4a,5,6,10b-octahydrobenzo[f]quinolin-3-one]
inhibition at 0.3 µM: 41%

CC(C)C(=O)c1ccc(-c2ccc3c(c2)CC[C@H]2N(C)C(=O)CC[C@]32C)cc1 [Example 122, (+)-(4aR)-(10bR)-4-methyl-8-(4-[isopropylcarbonyl]phenyl)-10b-methyl-1,2,3,4,4a,5,6,10b-octahydrobenzo[f]quinolin-3-one]
inhibition at 0.3 µM: 36%

CSc1ccccc1-c1ccc2c(c1)CC[C@H]1N(C)C(=O)CC[C@]21C [Example 127, (+)-(4aR)-(10bR)-4-methyl-8-(2-methylthiophenyl)-10b-methyl-1,2,3,4,4a,5,6,10b-octahydrobenzo[f]quinolin-3-one]
inhibition at 0.3 µM: 40%

C[C@]12C=CC(=O)N[C@@H]1CCc1cc(-c3cccc4ccccc34)ccc12 [Example 140, (+)-(4aR)-(10bR)-8-(1-naphthyl)-10b-methyl-3,4,4a,5,6,10b-hexahydrobenzo[f]quinolin-3-one]
inhibition at 0.3 µM: 20%

C[C@]12C=CC(=O)N[C@@H]1CCc1cc(-c3cccc([N+](=O)[O-])c3)ccc12 [Example 141, (+)-(4aR)-(10bR)-8-(3-nitrophenyl)-10b-methyl-3,4,4a,5,6,10b-hexahydrobenzo[f]quinolin-3-one]
inhibition at 0.3 µM: 19%

C[C@]12CCC(=O)N[C@@H]1CCc1cc(-c3cc(C(F)(F)F)nc4c(C(F)(F)F)cccc34)ccc12 [Example 197, (+)-(4aR)-(10bR)-8-(4-[2,8-bistrifluoromethyl]quinolinyl)-10b-methyl-1,2,3,4,4a,5,6,10b-octahydrobenzo[f]quinolin-3-one]
inhibition at 0.3 µM: 37%

C[C@]12CCC(=O)N[C@@H]1CCc1cc(-c3nccs3)ccc12 [Example 198, (+)-(4aR)-(10bR)-8-(2-thiazolyl)-10b-methyl-1,2,3,4,4a,-5,6,10b-octahydrobenzo[f]quinolin-3-one]
inhibition at 0.3 µM: 7%

C[C@]12CCC(=O)N[C@@H]1CCc1cc(-c3ccc([N+](=O)[O-])cn3)ccc12 [Example 199, (+)-(4aR)-(10bR)-8-(5-nitro-2-pyridinyl)-10b-methyl-1,2,3,4,4a,5,6,10b-octahydrobenzo[f]quinolin-3-one]
inhibition at 0.3 µM: 30%

CN1C(=O)CC[C@]2(C)c3ccc(NC(=O)c4cccc([N+](=O)[O-])c4)cc3CC[C@@H]12 [Example 268, (+)-(4aR)-(10bR)-4,10b-dimethyl-8-(3-nitrobenzoylamino)-1,2,3,4,4a,5,6,10b-octahydrobenzo[f]quinolin-3-one]
inhibition at 0.3 µM: 18%

CN1C(=O)CC[C@]2(C)c3ccc(NC(=O)c4ccc(N)cc4)cc3CC[C@@H]12 [Example 271, (4aR)-(10bR)-4,10b-dimethyl-8-(4-aminobenzoylamino)-1,2,3,4,4a,5,6,10b-octahydrobenzo[f]quinolin-3-one]
inhibition at 0.3 µM: 36%
